Test results: patent US7812183B2, “Benzopyran derivatives as potassium channel openers” (Janssen Pharmaceutica NV, priority 2005, dated 2010)

Biological target: T1, KATP channels (Homo sapiens, UniProt O60706+Q14654)
T1 construct: TE671 human medulloblastoma cells were obtained from ATCC; host or cells: TE671 human medulloblastoma cells
Experiment: Potassium Channel Assay (FLIPR membrane potential, TE671 cells)
Type: cell-based
Conditions: TE671 human medulloblastoma cells, Membrane Potential Assay Dye, room temperature, hyperpolarization from KATP channel opening
Procedure, shortened: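 Human medulloblastoma cells plated day before at 50K/well, loaded 15–30 min with membrane potential dye in HEPES buffer (2 mM KCl, 2 mM CaCl2, 5 mM glucose) at room temperature. Compound-induced hyperpolarization (fluorescence decrease) monitored 3 min; 5 μM glyburide then added to confirm KATP opener specificity.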

T1 sequence (O60706 1-1549 isoform O60706-2): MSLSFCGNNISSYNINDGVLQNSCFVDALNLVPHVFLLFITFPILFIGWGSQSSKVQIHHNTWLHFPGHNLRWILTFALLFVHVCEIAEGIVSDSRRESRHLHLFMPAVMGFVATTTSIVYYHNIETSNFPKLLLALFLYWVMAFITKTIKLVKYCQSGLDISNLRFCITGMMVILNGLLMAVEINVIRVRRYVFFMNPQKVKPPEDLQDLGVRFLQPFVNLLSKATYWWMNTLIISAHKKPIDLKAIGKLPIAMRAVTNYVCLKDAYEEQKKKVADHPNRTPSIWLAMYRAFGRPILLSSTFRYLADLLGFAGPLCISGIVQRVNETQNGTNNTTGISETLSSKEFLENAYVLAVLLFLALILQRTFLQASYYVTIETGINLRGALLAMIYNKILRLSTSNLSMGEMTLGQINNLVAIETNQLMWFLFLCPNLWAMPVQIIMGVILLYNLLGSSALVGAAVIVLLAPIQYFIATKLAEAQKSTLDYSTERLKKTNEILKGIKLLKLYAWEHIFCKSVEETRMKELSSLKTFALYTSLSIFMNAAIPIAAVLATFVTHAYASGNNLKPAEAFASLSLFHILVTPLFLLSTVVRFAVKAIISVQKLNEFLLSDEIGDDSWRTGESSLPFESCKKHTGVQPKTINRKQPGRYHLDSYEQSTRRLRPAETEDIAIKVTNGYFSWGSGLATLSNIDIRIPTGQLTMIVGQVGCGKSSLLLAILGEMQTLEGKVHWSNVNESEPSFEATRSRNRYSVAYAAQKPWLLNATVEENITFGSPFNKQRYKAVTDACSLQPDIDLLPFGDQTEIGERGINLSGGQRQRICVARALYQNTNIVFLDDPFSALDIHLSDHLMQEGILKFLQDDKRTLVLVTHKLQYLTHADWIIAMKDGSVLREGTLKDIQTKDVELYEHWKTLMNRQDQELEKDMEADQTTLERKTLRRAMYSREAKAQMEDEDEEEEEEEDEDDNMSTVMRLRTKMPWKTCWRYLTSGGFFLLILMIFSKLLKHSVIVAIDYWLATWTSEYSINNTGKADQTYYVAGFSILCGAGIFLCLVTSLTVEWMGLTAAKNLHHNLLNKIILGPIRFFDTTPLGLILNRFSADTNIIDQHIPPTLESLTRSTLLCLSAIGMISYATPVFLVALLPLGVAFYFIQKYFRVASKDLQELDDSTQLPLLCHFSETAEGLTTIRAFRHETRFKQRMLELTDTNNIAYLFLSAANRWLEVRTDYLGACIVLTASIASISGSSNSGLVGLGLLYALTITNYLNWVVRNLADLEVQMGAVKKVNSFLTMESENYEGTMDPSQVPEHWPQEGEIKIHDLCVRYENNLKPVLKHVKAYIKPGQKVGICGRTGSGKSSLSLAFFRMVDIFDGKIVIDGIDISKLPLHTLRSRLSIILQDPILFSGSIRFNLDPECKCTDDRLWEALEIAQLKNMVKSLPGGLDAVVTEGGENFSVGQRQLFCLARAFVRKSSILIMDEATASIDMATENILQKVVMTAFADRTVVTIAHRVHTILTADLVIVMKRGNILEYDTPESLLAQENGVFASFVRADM
T1 sequence (Q14654 whole entry): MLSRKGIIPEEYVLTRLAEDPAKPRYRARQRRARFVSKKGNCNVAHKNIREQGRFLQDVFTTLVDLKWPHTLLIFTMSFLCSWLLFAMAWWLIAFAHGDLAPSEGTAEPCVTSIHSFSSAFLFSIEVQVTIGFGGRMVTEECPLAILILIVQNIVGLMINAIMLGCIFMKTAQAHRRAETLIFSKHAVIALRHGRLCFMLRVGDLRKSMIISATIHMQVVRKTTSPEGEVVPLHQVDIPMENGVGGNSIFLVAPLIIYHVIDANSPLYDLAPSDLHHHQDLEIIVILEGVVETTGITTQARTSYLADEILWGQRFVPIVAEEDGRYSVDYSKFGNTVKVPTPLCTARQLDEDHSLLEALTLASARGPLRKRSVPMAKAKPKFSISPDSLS

| EC50 [µM] | Compound |
| --- | --- |
| 22.6 | Cc1cccc2c(=O)n([C@@H]3c4cc(C#N)ccc4OC(C)(C)[C@H]3O)oc12 [Compound 32, 3S-Hydroxy-2,2-dimethyl-4R-(7-methyl-3-oxo-3H-benzo[d]isoxazol-2-yl)-chroman-6-carbonitrile] |
| > 30 | CCN(CC)C(=O)c1ccc2c(c1)[C@@H](Oc1noc3cc(Cl)ccc13)[C@H](O)C(C)(C)O2 [Compound 90, 4R-(6-Chloro-benzo[d]isoxazol-3-yloxy)-3S-hydroxy-2,2-dimethyl-chroman-6-carboxylic acid diethylamide] |
| 7.45 | CC1(C)Oc2ccc(C#N)cc2[C@@H](n2cncc2-c2ccc(Cl)cc2)[C@@H]1O (racemic) [Compound 18, 4-[5-(4-Chloro-phenyl)-imidazol-1-yl]-3-hydroxy-2,2-dimethyl-chroman-6-carbonitrile] |
| 29.7 | N#Cc1ccc2c(c1)[C@@H](Oc1noc3cc(Cl)ccc13)[C@H](O)C1(CCS(=O)(=O)CC1)O2 [Compound 200, (3S,4R)-4-(6-Chloro-benzo[d]isoxazol-3-yloxy)-2,2-(tetrahydro-4-sulfonylpyranyl)-3-hydroxy-chroman-6-carbonitrile] |
| 4.1 | CC1(C)Oc2ccc(C#N)cc2[C@@H](Oc2nsc3cc([N+](=O)[O-])ccc23)[C@@H]1O [Compound 41, 3S-Hydroxy-2,2-dimethyl-4R-(6-nitro-benzo[d]isothiazol-3-yloxy)-chroman-6-carbonitrile] |
| 19.3 | CC1(C)Oc2ccc(C#N)cc2[C@@H](Oc2noc3ccc(F)cc23)[C@@H]1O [Compound 70, (3S,4R)-4-(5-Fluoro-benzo[d]isoxazol-3-yloxy)-3-hydroxy-2,2-dimethyl-chroman-6-carbonitrile] |
| 0.26 | CC1(C)Oc2ccc(C#N)cc2[C@@H](Oc2noc3cc(Cl)ccc23)[C@@H]1O [Compound 22, 4R-(6-Chloro-benzo[d]isoxazol-3-yloxy)-3S-hydroxy-2,2-dimethyl-chroman-6-carbonitrile] |

More lines, now with the values behind:

| Compound | EC50 [µM] |
| --- | --- |
| CC1(C)Oc2ccc(Cl)cc2[C@@H](N2C(=O)CCN2c2ccccc2)[C@@H]1O (racemic) [Compound 13, 2-(6-Chloro-3-hydroxy-2,2-dimethyl-chroman-4-yl)-1-phenyl-pyrazolidin-3-one] | 3.16 |
| CCN(CC)S(=O)(=O)c1ccc2c(c1)[C@@H](Nc1noc3c(Cl)cccc13)[C@H](O)C(C)(C)O2 [Compound 82, 4R-(7-Chloro-benzo[d]isoxazol-3-ylamino)-3S-hydroxy-2,2-dimethyl-chroman-6-sulfonic acid diethylamide] | 26.6 |
| Cc1cn([C@@H]2c3cc(C#N)ccc3OC(C)(C)[C@H]2O)c(-c2ccccc2)n1 (racemic) [Compound 9, 3-Hydroxy-2,2-dimethyl-4-(4-methyl-2-phenyl-imidazol-1-yl)-chroman-6-carbonitrile] | > 30 |
| COc1ccc(S(=O)(=O)c2ccc3c(c2)[C@@H](n2oc4cc(Cl)ccc4c2=O)[C@H](O)C(C)(C)O3)cc1 [Compound 98, 6-Chloro-2-[3S-hydroxy-6-(4-methoxy-benzenesulfonyl)-2,2-dimethyl-chroman-4-yl]-4R-benzo[d]isoxazol-3-one] | 7.33 |
| CC1(C)Oc2ccc(C#N)cc2[C@@H](NP(C)(=O)c2ccccc2)[C@@H]1O (stereo partly drawn) [Compound 28] | 18.6 |
